Reference: the NIST ThermoML archive (doi:10.1016/j.jct.2016.03.026)

Assay: xn = mol fraction of the nth substance listed
Settings: 273.15 K, Fluid (supercritical or subcritical phases), x1 = 0.97; for mass density: Vibrating tube method

O=C=O [carbon dioxide] + CO
Settings	mass density [kg/m3]
8000 kPa	962.72
8025 kPa	962.8
8050 kPa	962.97
8075 kPa	963.13
8100 kPa	963.21
8125 kPa	963.38
8150 kPa	963.54
8175 kPa	963.7
8200 kPa	963.78
8225 kPa	963.95
8250 kPa	964.11
8275 kPa	964.23
8300 kPa	964.35
8325 kPa	964.52
8350 kPa	964.68
8375 kPa	964.76
8400 kPa	964.93
8425 kPa	965.04
8450 kPa	965.19
8475 kPa	965.34
8500 kPa	965.5
8525 kPa	965.6
8550 kPa	965.74
8575 kPa	965.91
8600 kPa	966
8625 kPa	966.15
8650 kPa	966.32
8675 kPa	966.46
8700 kPa	966.56
8725 kPa	966.72
8750 kPa	966.89
8775 kPa	966.97
8800 kPa	967.13
8825 kPa	967.3
8850 kPa	967.38
8875 kPa	967.54
8900 kPa	967.71
8925 kPa	967.86
8950 kPa	967.95
8975 kPa	968.12
9000 kPa	968.28
9025 kPa	968.36
9050 kPa	968.52
9075 kPa	968.69
9100 kPa	968.77
9125 kPa	968.93
9150 kPa	969.1
9175 kPa	969.18
9200 kPa	969.34
9225 kPa	969.51
9250 kPa	969.64
9275 kPa	969.75
9300 kPa	969.92
9325 kPa	970
9350 kPa	970.16
9375 kPa	970.32
9400 kPa	970.45
9425 kPa	970.57
9450 kPa	970.67
9475 kPa	970.81
9500 kPa	970.97
9525 kPa	971.14
9550 kPa	971.22
9575 kPa	971.39
9600 kPa	971.55
9625 kPa	971.63
9650 kPa	971.74
9675 kPa	971.88
9700 kPa	972.04
9725 kPa	972.2
9750 kPa	972.29
9775 kPa	972.43
9800 kPa	972.53
9825 kPa	972.69
9850 kPa	972.82
9875 kPa	972.94
9900 kPa	973.1
9925 kPa	973.18
9950 kPa	973.35
9975 kPa	973.43
10000 kPa	973.59
10025 kPa	973.69
10050 kPa	973.84
10075 kPa	973.99
10100 kPa	974.08
10125 kPa	974.24
10150 kPa	974.34
10175 kPa	974.49
10200 kPa	974.57
10225 kPa	974.73
10250 kPa	974.82
10275 kPa	974.98
10300 kPa	975.11
10325 kPa	975.22
10350 kPa	975.36
10375 kPa	975.47
10400 kPa	975.63
10425 kPa	975.71
10450 kPa	975.88
10475 kPa	975.96
10500 kPa	976.12
10525 kPa	976.2
10550 kPa	976.37
10575 kPa	976.45
10600 kPa	976.61
10625 kPa	976.69
10650 kPa	976.86
10675 kPa	976.94
10700 kPa	977.1
10725 kPa	977.18
10750 kPa	977.35
10775 kPa	977.48
10800 kPa	977.59
10825 kPa	977.76
10850 kPa	977.84
10875 kPa	978
10900 kPa	978.08
10925 kPa	978.2
10950 kPa	978.33
10975 kPa	978.49
11000 kPa	978.57
11025 kPa	978.7
11050 kPa	978.82
11075 kPa	978.97
11100 kPa	979.06
11125 kPa	979.16
11150 kPa	979.3
11175 kPa	979.46
11200 kPa	979.55
11225 kPa	979.71
11250 kPa	979.8
11275 kPa	979.94
11300 kPa	980.04
11325 kPa	980.16
11350 kPa	980.29
11375 kPa	980.39
11400 kPa	980.53
11425 kPa	980.69
11450 kPa	980.78
11475 kPa	980.89
11500 kPa	981.02
11525 kPa	981.13
11550 kPa	981.26
11575 kPa	981.37
11600 kPa	981.51
11625 kPa	981.62
11650 kPa	981.75
11675 kPa	981.86
11700 kPa	982
11725 kPa	982.08
11750 kPa	982.24
11775 kPa	982.36
11800 kPa	982.49
11825 kPa	982.57
11850 kPa	982.74
11875 kPa	982.81
11900 kPa	982.98
11925 kPa	983.06
11950 kPa	983.22
11975 kPa	983.3
12000 kPa	983.47
12025 kPa	983.55
12050 kPa	983.69
12075 kPa	983.79
12100 kPa	983.94
12125 kPa	984.04
12150 kPa	984.12
12175 kPa	984.29
12200 kPa	984.37
12225 kPa	984.53
12250 kPa	984.61
12275 kPa	984.74
12300 kPa	984.86
12325 kPa	984.94
12350 kPa	985.1
12375 kPa	985.18
12400 kPa	985.35
12425 kPa	985.43
12450 kPa	985.59
12475 kPa	985.67
12500 kPa	985.78
12525 kPa	985.92
12550 kPa	986
12575 kPa	986.16
12600 kPa	986.24
12625 kPa	986.39
12650 kPa	986.49
12675 kPa	986.57
12700 kPa	986.65
12725 kPa	986.81
12750 kPa	986.89
12775 kPa	987.06
12800 kPa	987.14
12825 kPa	987.27
12850 kPa	987.38
12875 kPa	987.47
12900 kPa	987.63
12925 kPa	987.71
12950 kPa	987.8
12975 kPa	987.96
13000 kPa	988.04
13025 kPa	988.15
13050 kPa	988.28
13075 kPa	988.39
13100 kPa	988.53
13125 kPa	988.61
13150 kPa	988.76
13175 kPa	988.85
13200 kPa	988.93
13225 kPa	989.1
13250 kPa	989.18
13275 kPa	989.28
13300 kPa	989.42
13325 kPa	989.5
13350 kPa	989.67
13375 kPa	989.75
13400 kPa	989.83
13425 kPa	989.98
13450 kPa	990.07
13475 kPa	990.16
13500 kPa	990.32
13525 kPa	990.4
13550 kPa	990.48
13575 kPa	990.65
13600 kPa	990.73
13625 kPa	990.86
13650 kPa	990.97
13675 kPa	991.05
13700 kPa	991.22
13725 kPa	991.3
13750 kPa	991.4
13775 kPa	991.51
13800 kPa	991.62
13825 kPa	991.75
13850 kPa	991.87
13875 kPa	991.95
13900 kPa	992.09
13925 kPa	992.19
13950 kPa	992.27
13975 kPa	992.38
14000 kPa	992.52
14025 kPa	992.6

Settings	speed of sound [m/s]
10000 kPa, Frequency=5 MHz, Pulse-echo method	634.7
